Holding throughout (type): cell-based
One test has as its system 1A6. Nature of the test: MTT cell proliferation assay, 1A6. As to conditions: 1A6 cell line (urinary bladder). The procedure: (§1) The antiviral and antitumor activities of the compounds of the invention were evaluated by a cellular proliferation assay. The MTT [3-(4,5-dimethylthiazol-2-yl)-2,5-diphenyltetrazolium bromide] assay, first described by Mosmann (Mosmann T., “Rapid colorimetric assay for cellular growth and survival: application to proliferation and cytotoxicity assays,” J. Immunol. Methods 1983 Dec. 16; 65(1-2):55-63, and incorporated by reference in its entirety) is based on the ability of a mitochondrial dehydrogenase enzyme from viable cells to cleave the tetrazolium rings of the pale yellow MTT. The cleavage reaction form a dark blue formazan crystals which is largely impermeable to cell membranes and accumulation within healthy cells. Solubilisation of the cells by the addition of a detergent liberates and solubilizes the crystals. The number of surviving cells is directly proportional to the level of the formazan product created. The color can then be quantified using a simple colorimetric assay. The results can be read on a multiwell scanning spectrophotometer (ELISA reader).
(§2) In Tables 1 and 2, IC50 values are presented for various cell lines in micromolar units (μm), “Gemci” is Gemcitabine, and “5-FU” is 5-fluorouracil.
(In general: Formazan colour is commonly taken as a measure of viable cells.)

The test system of a further test is 22Rv1. Nature of the test: MTT cell proliferation assay, 22Rv1. The following applies: Homo sapiens; 22Rv1 cell line (prostate). The procedure:
as §1, §2

The test system of the next test is 786-O. Briefly: MTT cell proliferation assay, 786-O. The following applies: Homo sapiens, 786-0; 786-O cell line (kidney). The procedure:
as §1, §2

The next test deals with BxPC-3. Briefly: MTT cell proliferation assay, BxPC-3. The following applies: Homo sapiens; BxPC-3 cell line (pancreas). The procedure: as §1, §2
Another test has as its system Colo 829. Nature of the test: MTT cell proliferation assay, Colo 829. As to conditions: Homo sapiens; Colo 829 cell line (skin). The procedure: as §1, §2
In the next test the test system is DLD-1. Nature of the test: MTT cell proliferation assay, DLD-1. As to conditions: Homo sapiens; DLD-1 cell line (colon). The procedure: as §1, §2
In the next test the test system is HCC1143. Nature of the test: MTT cell proliferation assay, HCC1143. As to conditions: Homo sapiens; HCC1143 cell line (mammary gland; breast). The procedure:
as §1, §2

In another test the test system is HCT 116. Briefly: MTT cell proliferation assay, HCT 116. The following applies: Homo sapiens; HCT 116 cell line (colon). The procedure: as §1, §2
Another test concerns HL-60. Briefly: MTT cell proliferation assay, HL-60. As to conditions: Homo sapiens; HL-60 cell line (acute promyelocytic leukemia). The procedure: as §1, §2
The next test relates to MCF7. Briefly: MTT cell proliferation assay, MCF7. The following applies: Homo sapiens; MCF7 cell line (mammary gland; breast). The procedure: as §1, §2
In another test the test system is MOLT-4. Nature of the test: MTT cell proliferation assay, MOLT-4. As to conditions: Homo sapiens, MOLT-4, MOLT-4 cell line (acute lymphoblastic leukemia). The procedure: as §1, §2
The subject of another test is NCI H1395. Nature of the test: MTT cell proliferation assay, NCI H1395. As to conditions: Homo sapiens, NCI-H1395, NCI H1395 cell line (lung). The procedure:
as §1, §2

The next test concerns NCI H2052. Briefly: MTT cell proliferation assay, NCI H2052. As to conditions: Homo sapiens; NCI H2052 cell line (tumor stage 4 derived from pleural effusion). The procedure:
as §1, §2

The next test concerns OVCAR3. Briefly: MTT cell proliferation assay, OVCAR3. As to conditions: Homo sapiens, OVCAR-3; OVCAR3 cell line (ovary). The procedure:
as §1, §2

In a further test the test system is PFSK-1. Nature of the test: MTT cell proliferation assay, PFSK-1. As to conditions: Homo sapiens; PFSK-1 cell line (brain). The procedure: as §1, §2
Another test deals with ZR-75-1. Briefly: MTT cell proliferation assay, ZR-75-1. As to conditions: Homo sapiens; ZR-75-1 cell line (mammary gland; breast). The procedure: as §1, §2

SMILES strings stand for the structures.

For `C[C@@]1(CO)[C@@H](CO)O[C@@H](n2cc(F)c(N)nc2=O)[C@@H]1O` [LCB-1096, 4-amino-5-fluoro-1-((2R,3R,4S,5S)-3-hydroxy-4,5-bis(hydroxymethyl)-4-methyltetrahydrofuran-2-yl)pyrimidin-2(1H)-one], the concentration for half-maximal inhibition (IC50) in the test with 1A6, in the test on 22Rv1, in the test on 786-O, in the test on BxPC-3, in the test on Colo 829 and in the test on DLD-1 was above 500 µM each time. Also, the 50% inhibitory concentration (IC50) in the test on HCC1143, in the test on HCT 116, in the test with HL-60, with MCF7, with MOLT-4 and with NCI H1395 was above 500 µM throughout. Besides, the concentration for half-maximal inhibition (IC50) with NCI H2052, with OVCAR3, in the test on PFSK-1 and with ZR-75-1 was above 500 µM each time.
On to `O=c1[nH]cc(F)c(=O)[nH]1` [5-FU, 5-fluorouracil, reference compound], for which the IC50 (commonly the concentration that inhibits the measured activity by half) stood at 300 µM in the test on 1A6; 50 µM with 22Rv1; 110 µM in the test with 786-O; 220 µM in the test with BxPC-3; 170 µM in the test with Colo 829; 470 µM in the test on DLD-1. Also, the IC50 was 340 µM in the test with HCC1143; 25 µM with HCT 116; 25 µM with HL-60; 40 µM with MCF7; 20 µM with MOLT-4; above 500 µM with NCI H1395. Further, the IC50 with NCI H2052 is above 500 µM; in the test on OVCAR3 it was 35 µM; with PFSK-1, 460 µM; with ZR-75-1, above 500 µM.
In the case of `C[C@@]1(CO)[C@@H](CO)O[C@@H](n2ccc(N)nc2=O)[C@@H]1O` [LCB-1095, 4-amino-1-((2R,3R,4S,5S)-3-hydroxy-4,5-bis(hydroxymethyl)-4-methyltetrahydrofuran-2-yl)pyrimidin-2(1H)-one], the IC50 with 1A6 is above 500 µM; with 22Rv1, above 500 µM; with 786-O, above 500 µM; in the test on BxPC-3 it was above 500 µM; in the test with Colo 829, 460 µM; in the test with DLD-1 it was above 500 µM. The half-inhibitory concentration (IC50) with HCC1143 was above 500 µM; in the test on HCT 116, above 500 µM; in the test with HL-60, above 500 µM; with MCF7, 430 µM; in the test on MOLT-4 it was above 500 µM; in the test with NCI H1395 it was above 500 µM. In addition, the IC50 with NCI H2052, in the test with OVCAR3, in the test on PFSK-1 and in the test on ZR-75-1 was above 500 µM each time.
In the case of `CC12C(=O)OC[C@H]1O[C@@H](n1cc(F)c(N)nc1=O)C2O` (mixture of isomers) [LCB-1080, 4-amino-5-fluoro-1-((2R,3R,3αR,6αS)-3-hydroxy-3α-methyl-4-oxohexahydrofuro[3,4-β]furan-2-yl)pyrimidin-2(1H)-one], the IC50 in the test on 1A6, in the test on 786-O, in the test on Colo 829, with DLD-1, with HCC1143 and with HL-60 was above 500 µM in each case. The IC50 in the test on MCF7, in the test on MOLT-4, in the test on NCI H1395, in the test on NCI H2052, in the test with PFSK-1 and in the test with ZR-75-1 was above 500 µM in each case.
In the case of `CCOC(=O)C1(C)[C@@H](CO)O[C@H](n2cnc3c(NN)nc(NN)nc32)[C@@H]1O` (some centres unmarked) [LCB-1086], the IC50 in the test with 1A6 is above 100 µM; in the test on 22Rv1, above 100 µM; in the test with 786-O, above 100 µM; in the test on BxPC-3, 90 µM; in the test with Colo 829 it was above 100 µM; in the test on DLD-1, above 100 µM. Moreover, the IC50 in the test on HCC1143, in the test with HCT 116, in the test on HL-60, with MCF7, in the test on MOLT-4 and in the test on NCI H1395 was above 100 µM in each case. Also, the IC50 in the test with OVCAR3 was above 100 µM; in the test with PFSK-1, 98 µM; in the test on ZR-75-1, above 100 µM.
Regarding `CC1(CO)C(O)[C@H](n2cnc3c(=O)nc(N)[nH]c(=O)c32)O[C@@H]1CO` (stereo in doubt) [LCB-1097, 6-amino-1-((2R,3R,4S,5S)-3-hydroxy-4,5-bis(hydroxymethyl)-4-methyltetrahydrofuran-2-yl)imidazo[4,5-e][1,3]diazepine-4,8(1H,5H)-dione], the IC50 with 1A6, in the test with 22Rv1, in the test with 786-O, in the test with BxPC-3, with Colo 829 and in the test on DLD-1 was above 500 µM in each case. Besides, the concentration for half-maximal inhibition (IC50) in the test on HCC1143, in the test with HCT 116, in the test with HL-60, with MCF7, with MOLT-4 and in the test on NCI H1395 was above 500 µM throughout. Moreover, the IC50 with NCI H2052 is above 500 µM; with OVCAR3, above 500 µM; with PFSK-1, above 500 µM; with ZR-75-1, 210 µM.
For the compound `CC1(CO)C(O)C(n2cc(F)c(N)nc2=O)O[C@@H]1CO` (stereo partly drawn) [LCB-1082, 4-amino-5-fluoro-1-((2S,3S,4S,5S)-3-hydroxy-4,5-bis(hydroxymethyl)-4-methyltetrahydrofuran-2-yl)pyrimidin-2(1H)-one; 4-amino-5-fluoro-1-((2R,3R,4S,5S)-3-hydroxy-4,5-bis(hydroxymethyl)-4-methyltetrahydrofuran-2-yl)pyrimidin-2(1H)-one], the IC50 with 1A6, with 786-O, in the test on Colo 829, in the test on DLD-1, with HCC1143 and in the test with HL-60 was above 500 µM throughout. Further, the IC50 with MCF7, with MOLT-4, in the test with NCI H1395, with NCI H2052, in the test on PFSK-1 and with ZR-75-1 was above 500 µM in each case.
On to `C[C@]1(C(N)=O)[C@H](O)[C@@H](n2ccc(N)nc2=O)O[C@@H]1CO` [LCB-1087, (2S,3S,4S,5S)-5-(4-amino-2-oxopyrimidin-1(2H)-yl)-4-hydroxy-2-(hydroxymethyl)-3-methyltetrahydrofuran-3-carboxamide], for which the half-maximal inhibitory concentration (IC50) in the test with 1A6, with 22Rv1, with 786-O, with BxPC-3, in the test with Colo 829 and in the test on DLD-1 was above 500 µM each time. The IC50 in the test on HCC1143, with HCT 116, with HL-60, in the test on MCF7, in the test with MOLT-4 and in the test on NCI H1395 was above 500 µM in each case. The IC50 in the test with OVCAR3, in the test with PFSK-1 and with ZR-75-1 was above 500 µM each time.
For the compound `C[C@]1(CO)C(O)[C@H](n2ccc(N)nc2=O)O[C@@H]1CO` (some centres unmarked) [compound 1056], the IC50 with 1A6, with 786-O, in the test with BxPC-3, in the test with Colo 829, with DLD-1 and with HCC1143 was above 500 µM in each case. Also, the 50% inhibitory concentration (IC50) in the test on HCT 116 was above 500 µM; in the test on HL-60 it was above 500 µM; in the test on MCF7 it was above 500 µM; in the test with NCI H1395, 440 µM; in the test on NCI H2052, above 500 µM; with OVCAR3 it was above 500 µM. In addition, the IC50 in the test with PFSK-1 and in the test on ZR-75-1 was above 500 µM each time.
As for `CC12C(=O)OC[C@H]1O[C@@H](n1ccc(N)nc1=O)C2O` (mixture of isomers) [LCB-1079, 4-amino-1-((2R,3R,3αR,6αS)-3-hydroxy-3α-methyl-4-oxohexahydrofuro[3,4-β]furan-2-yl)pyrimidin-2(1H)-one], the IC50 in the test with 1A6 worked out at 350 µM; with 786-O it was 460 µM; in the test with BxPC-3, 160 µM; in the test on DLD-1 it was 440 µM; with HCC1143 it was 480 µM; with HCT 116, 410 µM. Moreover, the IC50 in the test on HL-60 was 250 µM; in the test with MCF7 it was 280 µM; in the test with MOLT-4, 260 µM; in the test on NCI H1395 it was above 500 µM; in the test with NCI H2052 it was 310 µM; with OVCAR3 it was 280 µM. Moreover, the IC50 in the test with PFSK-1 is 130 µM; with ZR-75-1 it was 380 µM.
